Laboratory results as given in patent publication US10047078B2, “Aminothiazole compounds” (National Health Research Institutes, priority 2016, dated 2018).

Assays:
[1] = tested on: xenografts MOLM-13 nude mice; assay: In vivo toxicity study, MOLM-13 model; details: for Mortality (nude mice n = 6 or 7): 5 on 2 off × 2; for Tolerability: PO once daily, Compound 2 at 25 and 50, Compound 4 at 150 mg/kg
Experimental: (§1) Male nude mice (Nu-Fox1^nu) of 8 weeks old were purchased from BioLASCO (Taipei, Taiwan, R.O.C.). Human colorectal Colo205, pancreatic Mia-PaCa 2 tumor cells or MOLM-13, 32D-ITD/D835Y leukemia cells were inoculated subcutaneously at 1×10^6 cells each in the nude mice. All human cancer cells were detected as free of Mycoplasma spp before they were injected into animals. The tumor cells grow as xenograft tumors and the tumor size reached approximately 200-250 mm^3 in the nude mice ready for dose treatments. Test compounds were dissolved in 20% 2-hydroxypropy-β-cyclodextrin individually for oral gavage administrations to the nude mice. The tumor-bearing mice were treated with test compounds at various doses, 5 times a week for 2 weeks. Tumor sizes were measured by an electronic caliper and calculated with the formula: tumor size=length×width^2/2. Tumor size and animal body weight were measured twice a week before and after the tumor cell inoculation throughout the observation period. Uses of animals and experimental procedures thereof were approved by the Institutional Animal Care and Use Committee (IACUC) of the National Health Research Institutes.
(§2) Compounds of formula (I) were tested in animals for their in vivo efficacy following the procedure described in EXAMPLE 24. Nine weeks old athymic nu/nu nude mice were administered orally at a once daily dose of 25, 50, 100, or 150 mg/kg on days 1-5 and 8-12.

[2] = tested on: xenografts FLT3-ITD-D835Y model; assay: Xenograft efficacy, FLT3-ITD-D835Y model; format: in vivo; details: FLT3-ITD-D835Y xenograft in nude mice, PO 25 mg/kg
Experimental: as §1

[3] = Pharmacokinetics and oral bioavailability in mice; details: for AUC(0-inf) / bioavailability: male, ICR, mouse, plasma
Experimental: (§7) Male ICR mice weighing 25-35 g each were obtained from BioLASCO (Taiwan Co., Ltd, Ilan, Taiwan). The animal studies were performed according to the National Health Research Institutes (NHRI) institutional animal care and committee-approved procedures. […] A single dose at 10 mg/kg of each of these four compounds was administered orally (PO) to a total of 27 male mice. Each mouse was given 100 mL of the IV dosing solution by intravenous tail-vein injection and 200 mL of the PO dosing solution by oral gavage. Animals that received the IV dose were not fasted and that received the PO dose were fasted overnight prior to dosing. At 0 (immediately before dosing), 2 (IV only), 5 (IV only), 15 and 30 min and at 1, 2, 4, 6, 8, 16 and 24 h after dosing, blood (˜500 mL) was collected from groups of 3 mice at each time point by cardio puncture and stored in ice (0-4° C.). Ethylenediaminetetraacetic acid (EDTA) was used as the anticoagulant. Plasma was separated from the blood by centrifugation (3000 rpm for 15 minutes at 4° C. in a Beckman Model Allegra 6R centrifuge) and stored in a freezer (−20° C.). Control plasma was obtained from mice receiving no compound for use of constructing the standard curve and for the preparation of quality control (QC) samples. All samples were analyzed for the parent compound by LC-MS/MS.
(§8) Oral bioavailability, presented as a percentage (F %), was calculated from dividing the average area under the curve (AUC) value of a compound after PO dosing by the average AUC value of the compound after IV dosing following dose normalization.

MOLM-13 xenografts = assay: Xenograft efficacy, MOLM-13 model; format: in vivo, nude mice; details: starting tumor size ~250 mm^3
Experimental: as §1

[4] = tested on: xenografts colo205 nude mice; assay: In vivo toxicity study, colo205 model; details: for Mortality (nude mice n = 6): 5 on 2 off × 2; for Tolerability: PO once daily, Compounds 1, 2, 3, 4, 6 at 50, 50, 100, 150 and 25 mg/kg
Experimental: as §1, with “All human cancer cells were detected as free of Mycoplasma spp before they were injected into animals.” left out
(§3) Nine weeks old athymic nu/nu nude mice were administered orally at a once daily dose of 25, 50, 100, or 150 mg/kg on days 1-5 and 8-12.

32D-ITD/F691I cells = assay: MTS cell viability, 32D cells expressing FLT3-ITD mutant; format: cell-based, Murine; details: 72-h incubation
Text: (§4) The five leukemic 32D cell lines were purchased from American Type Culture Collection (ATCC, Manassas, Va., USA). Murine pro-B lymphocyte 32D cell lines were stably transfected with expression vectors that encoded human FLT3 containing an ITD mutation (32D-ITD cells), ITD and D835Y (32D-ITD/D835Y cells), ITD and D835V (32D-ITD/D835V cells), ITD and D835F (32D-ITD/D835F cells), and ITD and F691L (32D-ITD/F691L cells) mutations, which lead to constitutive activation of the FLT3 downstream signaling proteins. The cell viability was assessed with the MTS assay described in PLoS One, 2014, 9, e97116. 32D-ITD/D835Y, 32D-ITD/D835V, 32D-ITD/D835F, 32D-ITD/F691L, and 32D-ITD/F691I cells were seeded in 96-well plates at 1×10^4 cells/mL (100 μL per well) for 24-h incubation. Test compounds (at various concentrations in dimethyl sulfoxide (DMSO) were subsequently added to the culture medium for 72-h incubation. The cell viability was determined by the MTS assay (Promega, Madison, Wis., USA).

32D-ITD/F691L cells = assay: as above; format: cell-based, Murine; details: 72-h incubation
Text: as §4

32D-ITD/D835F cells = assay: as above; format: cell-based, Murine; details: 72-h incubation
Text: as §4

[5] = tested on: xenografts FLT3-ITD-D835Y nude mice; assay: In vivo toxicity study, FLT3-ITD-D835Y model; details: PO 25 mg/kg once daily; for Mortality (nude mice n = 8): 5 on 2 off × 2
Experimental: as §1, §2

DDR1 = DDR1 (Homo sapiens, UniProt Q08345); assay: SelectScreen biochemical kinase profiling; format: binding; details: 100 nM, read-out: Inhibition (% of control) at 100 nM
Chain of DDR1 (Q08345 19-913): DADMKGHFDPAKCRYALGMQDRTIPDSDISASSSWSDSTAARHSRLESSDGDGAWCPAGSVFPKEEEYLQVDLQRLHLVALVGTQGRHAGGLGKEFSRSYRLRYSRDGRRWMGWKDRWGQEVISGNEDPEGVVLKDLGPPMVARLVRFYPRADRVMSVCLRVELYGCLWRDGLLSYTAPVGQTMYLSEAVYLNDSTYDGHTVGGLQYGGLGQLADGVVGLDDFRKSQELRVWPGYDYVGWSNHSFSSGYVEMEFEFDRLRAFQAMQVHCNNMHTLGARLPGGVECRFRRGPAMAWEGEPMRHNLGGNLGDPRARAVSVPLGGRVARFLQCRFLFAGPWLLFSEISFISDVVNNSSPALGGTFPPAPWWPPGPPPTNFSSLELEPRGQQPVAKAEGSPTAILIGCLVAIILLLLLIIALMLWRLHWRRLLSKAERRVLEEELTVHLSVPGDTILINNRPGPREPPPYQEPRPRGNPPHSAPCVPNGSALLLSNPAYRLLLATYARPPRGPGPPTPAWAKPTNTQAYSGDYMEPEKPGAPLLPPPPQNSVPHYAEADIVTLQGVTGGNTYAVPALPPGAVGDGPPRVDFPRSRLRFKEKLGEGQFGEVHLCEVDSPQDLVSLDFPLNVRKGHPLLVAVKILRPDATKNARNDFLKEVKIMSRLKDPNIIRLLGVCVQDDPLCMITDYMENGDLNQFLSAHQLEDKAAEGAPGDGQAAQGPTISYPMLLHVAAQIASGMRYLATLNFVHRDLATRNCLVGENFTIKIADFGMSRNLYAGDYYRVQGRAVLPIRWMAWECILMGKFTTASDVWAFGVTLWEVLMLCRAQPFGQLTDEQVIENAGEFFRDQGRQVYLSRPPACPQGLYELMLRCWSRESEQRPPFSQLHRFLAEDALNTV
Experimental: (§5) Kinase inhibition data were obtained from SelectScreen® Biochemical Kinase Profiling Service.
(§6) More specifically, test compounds were screened in 160 nL of a 1% DMSO solution in the well of a 384-well plate; kinase/antibody mixtures (8 μL) were diluted to a 2-fold working concentration in an appropriate kinase buffer (3.84 μL) and a 4-fold AlexaFluor® labeled tracer (4 μL) was prepared in the kinase buffer; incubation of test solutions was conducted at room is temperature for 60 minutes; and readout on a fluorescence plate reader was recorded and analyzed.

TRK B = TRK B (Homo sapiens, UniProt Q16620); assay: SelectScreen biochemical kinase profiling; format: binding; details: 100 nM, read-out: Inhibition (% of control) at 100 nM
Chain of TRK B (Q16620 32-822): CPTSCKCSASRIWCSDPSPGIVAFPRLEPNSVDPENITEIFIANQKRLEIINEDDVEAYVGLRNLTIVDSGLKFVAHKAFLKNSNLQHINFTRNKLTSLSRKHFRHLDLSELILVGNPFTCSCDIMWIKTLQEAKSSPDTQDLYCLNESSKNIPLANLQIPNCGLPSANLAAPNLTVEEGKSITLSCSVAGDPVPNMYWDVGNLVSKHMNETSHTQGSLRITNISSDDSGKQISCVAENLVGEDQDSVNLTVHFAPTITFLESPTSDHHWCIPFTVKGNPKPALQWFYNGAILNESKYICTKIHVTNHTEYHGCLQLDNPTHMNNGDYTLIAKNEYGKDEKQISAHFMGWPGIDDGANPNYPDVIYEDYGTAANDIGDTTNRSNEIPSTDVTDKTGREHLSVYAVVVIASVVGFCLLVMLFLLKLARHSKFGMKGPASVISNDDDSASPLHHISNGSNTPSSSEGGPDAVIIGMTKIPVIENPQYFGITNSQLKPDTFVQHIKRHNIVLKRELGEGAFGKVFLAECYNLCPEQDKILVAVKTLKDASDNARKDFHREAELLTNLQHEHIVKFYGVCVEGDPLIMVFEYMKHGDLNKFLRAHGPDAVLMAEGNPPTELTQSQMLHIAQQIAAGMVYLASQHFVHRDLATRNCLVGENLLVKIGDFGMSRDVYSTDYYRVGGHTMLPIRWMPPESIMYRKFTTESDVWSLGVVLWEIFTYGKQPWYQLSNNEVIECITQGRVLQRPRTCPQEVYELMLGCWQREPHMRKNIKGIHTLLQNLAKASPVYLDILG
Experimental: as §5, §6

RET = RET (Homo sapiens, UniProt P07949); assay: SelectScreen biochemical kinase profiling; format: binding; details: 100 nM, read-out: Inhibition (% of control) at 100 nM
Chain of RET (P07949 29-1114): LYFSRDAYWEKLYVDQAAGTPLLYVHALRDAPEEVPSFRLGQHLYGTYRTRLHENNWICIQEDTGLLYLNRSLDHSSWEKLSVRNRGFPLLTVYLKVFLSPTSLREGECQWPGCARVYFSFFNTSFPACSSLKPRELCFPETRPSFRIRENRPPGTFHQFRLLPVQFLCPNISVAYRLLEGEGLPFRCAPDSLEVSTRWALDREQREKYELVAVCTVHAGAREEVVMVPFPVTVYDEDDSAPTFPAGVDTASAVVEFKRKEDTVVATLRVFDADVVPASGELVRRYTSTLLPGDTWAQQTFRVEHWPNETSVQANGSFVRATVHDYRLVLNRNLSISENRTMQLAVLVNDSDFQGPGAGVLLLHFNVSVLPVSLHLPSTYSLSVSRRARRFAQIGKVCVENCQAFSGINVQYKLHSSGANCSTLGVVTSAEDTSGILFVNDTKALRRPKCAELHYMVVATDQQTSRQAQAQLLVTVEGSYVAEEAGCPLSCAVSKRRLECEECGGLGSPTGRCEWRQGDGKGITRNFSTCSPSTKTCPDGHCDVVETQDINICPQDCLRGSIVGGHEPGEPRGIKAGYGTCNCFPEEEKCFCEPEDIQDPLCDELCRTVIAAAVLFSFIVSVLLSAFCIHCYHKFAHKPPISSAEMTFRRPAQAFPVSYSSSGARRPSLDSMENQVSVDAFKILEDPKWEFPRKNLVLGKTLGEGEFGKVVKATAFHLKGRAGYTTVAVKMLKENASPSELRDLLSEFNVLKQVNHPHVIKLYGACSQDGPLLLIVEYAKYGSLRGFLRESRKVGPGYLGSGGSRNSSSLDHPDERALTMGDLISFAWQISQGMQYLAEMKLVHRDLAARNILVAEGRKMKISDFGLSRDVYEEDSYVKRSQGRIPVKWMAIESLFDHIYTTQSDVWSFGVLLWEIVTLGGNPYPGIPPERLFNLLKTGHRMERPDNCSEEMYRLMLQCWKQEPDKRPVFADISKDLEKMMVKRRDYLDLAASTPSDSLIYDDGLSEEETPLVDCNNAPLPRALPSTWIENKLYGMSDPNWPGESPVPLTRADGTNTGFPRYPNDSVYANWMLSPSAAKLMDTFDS
Experimental: as §5, §6

TRK A = TRK A (Homo sapiens, UniProt P04629); assay: SelectScreen biochemical kinase profiling; format: binding; details: 100 nM, read-out: Inhibition (% of control) at 100 nM
Experimental: as §5, §6

SRC = SRC (Homo sapiens, UniProt P12931); assay: SelectScreen biochemical kinase profiling; format: binding; details: 100 nM, read-out: Inhibition (% of control) at 100 nM
Experimental: as §5, §6

KIT = KIT (Homo sapiens, UniProt P10721); assay: SelectScreen biochemical kinase profiling; format: binding; details: 100 nM, read-out: Inhibition (% of control) at 100 nM
Experimental: as §5, §6

PDGFR B = PDGFR B (Homo sapiens, UniProt P09619); assay: SelectScreen biochemical kinase profiling; format: binding; details: 100 nM, read-out: Inhibition (% of control) at 100 nM
Chain of PDGFR B (P09619 33-1106): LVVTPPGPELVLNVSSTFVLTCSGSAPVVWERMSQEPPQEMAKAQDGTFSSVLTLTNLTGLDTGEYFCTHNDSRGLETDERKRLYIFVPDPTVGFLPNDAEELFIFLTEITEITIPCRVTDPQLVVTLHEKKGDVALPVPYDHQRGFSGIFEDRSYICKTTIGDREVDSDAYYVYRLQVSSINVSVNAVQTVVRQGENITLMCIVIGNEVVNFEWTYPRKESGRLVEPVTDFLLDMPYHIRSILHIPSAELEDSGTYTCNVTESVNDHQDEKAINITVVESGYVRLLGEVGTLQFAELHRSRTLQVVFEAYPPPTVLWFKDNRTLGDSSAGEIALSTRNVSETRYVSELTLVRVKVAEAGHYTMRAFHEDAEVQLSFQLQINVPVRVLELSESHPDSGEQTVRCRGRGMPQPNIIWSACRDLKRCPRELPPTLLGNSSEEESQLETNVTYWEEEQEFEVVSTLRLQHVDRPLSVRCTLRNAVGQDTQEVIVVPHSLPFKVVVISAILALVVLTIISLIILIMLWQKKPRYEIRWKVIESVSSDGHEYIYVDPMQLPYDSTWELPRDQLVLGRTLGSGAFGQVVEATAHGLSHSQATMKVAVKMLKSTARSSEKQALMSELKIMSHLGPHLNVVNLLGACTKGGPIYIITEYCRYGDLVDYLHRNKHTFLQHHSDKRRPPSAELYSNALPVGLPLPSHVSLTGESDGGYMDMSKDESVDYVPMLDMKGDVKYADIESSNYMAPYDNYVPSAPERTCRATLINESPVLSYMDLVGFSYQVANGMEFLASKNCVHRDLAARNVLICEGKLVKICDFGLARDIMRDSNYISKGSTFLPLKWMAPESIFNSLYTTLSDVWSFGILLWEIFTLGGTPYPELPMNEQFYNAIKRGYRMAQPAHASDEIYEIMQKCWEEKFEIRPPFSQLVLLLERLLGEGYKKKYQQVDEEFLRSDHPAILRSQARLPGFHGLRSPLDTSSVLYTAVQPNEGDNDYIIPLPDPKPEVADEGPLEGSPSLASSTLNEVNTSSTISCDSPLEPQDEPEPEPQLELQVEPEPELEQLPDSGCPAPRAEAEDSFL
Experimental: as §5, §6

PDGFR A = PDGFR A (Homo sapiens, UniProt P16234); assay: SelectScreen biochemical kinase profiling; format: binding; details: 100 nM, read-out: Inhibition (% of control) at 100 nM
Chain of PDGFR A (P16234 24-1089): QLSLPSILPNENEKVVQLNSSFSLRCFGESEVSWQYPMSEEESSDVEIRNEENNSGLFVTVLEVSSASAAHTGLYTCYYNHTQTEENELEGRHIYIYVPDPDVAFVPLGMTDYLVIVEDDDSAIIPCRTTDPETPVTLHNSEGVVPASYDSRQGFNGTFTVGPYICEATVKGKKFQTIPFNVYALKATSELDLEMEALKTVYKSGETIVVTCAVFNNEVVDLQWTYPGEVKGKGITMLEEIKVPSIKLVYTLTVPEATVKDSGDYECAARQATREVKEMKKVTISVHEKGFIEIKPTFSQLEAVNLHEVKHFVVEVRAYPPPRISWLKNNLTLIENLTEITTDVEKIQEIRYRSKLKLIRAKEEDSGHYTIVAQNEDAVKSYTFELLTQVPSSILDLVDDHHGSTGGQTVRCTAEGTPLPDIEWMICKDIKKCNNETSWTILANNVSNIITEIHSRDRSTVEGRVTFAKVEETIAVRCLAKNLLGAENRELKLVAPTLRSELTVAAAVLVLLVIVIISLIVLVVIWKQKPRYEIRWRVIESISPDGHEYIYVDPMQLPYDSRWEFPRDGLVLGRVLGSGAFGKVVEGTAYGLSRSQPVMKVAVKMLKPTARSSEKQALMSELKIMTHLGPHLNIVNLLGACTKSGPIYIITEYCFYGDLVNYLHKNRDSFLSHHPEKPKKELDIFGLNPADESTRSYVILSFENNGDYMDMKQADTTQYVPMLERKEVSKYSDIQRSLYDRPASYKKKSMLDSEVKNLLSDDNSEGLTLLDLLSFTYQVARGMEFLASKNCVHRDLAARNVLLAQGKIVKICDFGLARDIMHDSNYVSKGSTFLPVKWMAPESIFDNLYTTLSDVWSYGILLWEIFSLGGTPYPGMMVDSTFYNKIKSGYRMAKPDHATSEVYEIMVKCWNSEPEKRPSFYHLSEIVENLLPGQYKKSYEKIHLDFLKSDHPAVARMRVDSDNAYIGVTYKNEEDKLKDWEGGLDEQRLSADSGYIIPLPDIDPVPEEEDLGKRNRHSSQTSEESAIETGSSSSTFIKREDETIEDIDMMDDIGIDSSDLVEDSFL
Experimental: as §5, §6

Colo205 xenografts = assay: Xenograft efficacy, Colo205 model; format: in vivo; details: Colo205 xenografts in nude mice, 5 times a week for 2 weeks
Experimental: as §1

ABL1 T315I = ABL1 T315I (Homo sapiens, UniProt P00519, T315I); assay: SelectScreen biochemical kinase profiling; format: binding; details: 100 nM, read-out: Inhibition (% of control) at 100 nM
Experimental: as §5, §6

Mia-paca2 tumor model = assay: Xenograft efficacy, Mia-paca2 tumor model; format: in vivo, nude mice; details: PO 25 mg/kg
Experimental: as §1

[6] = tested on: xenografts Mia-paca2 nude mice; assay: In vivo toxicity study, Mia-paca2 model; details: PO 25 mg/kg once daily; for Mortality (nude mice n = 6): 5 on 2 off × 2
Experimental: as §1, with “All human cancer cells were detected as free of Mycoplasma spp before they were injected into animals.” left out
as §3

in vivo = details: male, ICR, mouse
Experimental: as §7, §8

| SMILES | Tolerability [1] | Day 12 tumor regression [2] | AUC(0-inf) ([3]; iv, 2 mg/kg) | AUC(0-inf) ([3]; po, 10 mg/kg) | Tolerability [4] | GI50 (32D-ITD/F691I cells; Mus musculus, 32D, 72 h) | GI50 (32D-ITD/F691L cells; Mus musculus, 32D, 72 h) | GI50 (32D-ITD/D835F cells) | GI50 (32D-ITD/D835F cells; Mus musculus, 32D, 72 h) | Tolerability [5] | Mortality (nude mice n = 8) [5] | inhibition at 0.1 µM (DDR1) | inhibition at 0.1 µM (TRK B) | inhibition at 0.1 µM (RET) | inhibition at 0.1 µM (TRK A) | inhibition at 0.1 µM (SRC) | inhibition at 0.1 µM (KIT) | inhibition at 0.1 µM (PDGFR B) | inhibition at 0.1 µM (PDGFR A) | bioavailability ([3]; po, 10 mg/kg) | also measured |
| --- | --- | --- | --- | --- | --- | --- | --- | --- | --- | --- | --- | --- | --- | --- | --- | --- | --- | --- | --- | --- | --- |
| CCc1cc(NC(=O)Nc2ccc(-c3cnc(Nc4cc(N5CCN(CC)CC5)ncn4)s3)cc2)no1 [Compound 2, 1-(5-Ethylisoxazol-3-yl)-3-(4-(2-((6-(4-ethylpiperazin-1-yl)pyrimidin-4-yl)amino)thiazol-5-yl)phenyl)urea] | well tolerated | 34% | 1440 ng·h/mL | 2800 ng·h/mL | well tolerated | 158 nM | 14 nM | 5.8 nM | < 6 nM | well tolerated | 0/8 (25 mg/kg) | 80% | 72% | 94% | 60% | 79% | 67% | 80% | 89% | – | Mortality (nude mice n = 6 or 7) ([1]; PO 25 or 50 mg/kg once daily): 0/6; F (%) oral bioavailability ([3]; mice, PO 10 mg/kg vs IV 2 mg/kg, dose normalized): 38%; Day 25 tumor size (MOLM-13 xenografts; PO 25 mpk): 270 mm^3; Day 25 tumor size (MOLM-13 xenografts; PO 50 mpk): 53 mm^3; Mortality (nude mice n = 6) ([4]; PO 50 mg/kg once daily): 0/6 (50 mg/kg); Day 18 TGI (Colo205 xenografts; PO 50 mg/kg, 50 mg/kg): ~80% |
| CCc1cc(NC(=O)Nc2ccc(-c3cnc(Nc4cc(OCCN5CCOCC5)ncn4)s3)cc2)no1 [Compound 3, 1-(5-Ethylisoxazol-3-yl)-3-(4-(2-((6-(2-morpholinoethoxy)pyrimidin-4-yl)amino)thiazol-5-yl)phenyl)urea] | – | – | 2070 ng·h/mL | 11400 ng·h/mL | well tolerated | – | – | – | – | – | – | 77% | 73% | 56% | 69% | 66% | 85% | 92% | 79% | 96% | Mortality (nude mice n = 6) ([4]; PO 100 mg/kg once daily): 0/6 (100 mg/kg); inhibition at 0.1 µM (ABL1 T315I): 15%; Day 18 TGI (Colo205 xenografts; PO 100 mg/kg, 100 mg/kg): ~80% |
| CCc1cc(NC(=O)Nc2ccc(-c3cnc(Nc4cc(N5CCN(CCO)CC5)ncn4)s3)cc2)no1 [Compound 4, 1-(5-Ethylisoxazol-3-yl)-3-(4-(2-((6-(4-(2-hydroxyethyl)piperazin-1-yl)pyrimidin-4-yl)amino)thiazol-5-yl)phenyl)urea] | well tolerated | – | – | – | well tolerated | < 20 nM | < 20 nM | 5.5 nM | < 6 nM | – | – | – | – | – | – | – | – | – | – | – | Mortality (nude mice n = 6 or 7) ([1]; PO 150 mg/kg once daily): 0/6; Day 25 tumor size (MOLM-13 xenografts; PO 150 mpk): 193 mm^3 (150 mpk); Mortality (nude mice n = 6) ([4]; PO 150 mg/kg once daily): 0/6 (150 mg/kg); GI50 (32D-ITD/F691I cells): 19 nM; GI50 (32D-ITD/F691L cells): 12 nM; Day 18 TGI (Colo205 xenografts; PO 150 mg/kg, 150 mg/kg): ~80% |
| CCc1cc(NC(=O)Nc2ccc(-c3cnc(Nc4cc(N5CCN(CCF)CC5)ncn4)s3)cc2)no1 [Compound 5, 1-(5-Ethylisoxazol-3-yl)-3-(4-(2-((6-(4-(2-fluoroethyl)piperazin-1-yl)pyrimidin-4-yl)amino)thiazol-5-yl)phenyl)urea] | – | 22% | 2720 ng·h/mL | 8240 ng·h/mL | – | – | – | – | – | well tolerated | 0/8 (25 mg/kg) | – | – | – | – | – | – | – | – | 67% | Day 18 TGI (Mia-paca2 tumor model): 65%; Tolerability [6]: well tolerated; Mortality (nude mice n = 6) [6]: 0/6 (25 mg/kg) |
| CCc1cc(NC(=O)Nc2ccc(-c3cnc(Nc4cc(N5CCN(CCF)CC5)nc(C)n4)s3)cc2)no1 [Compound 6, 1-(5-Ethylisoxazol-3-yl)-3-(4-(2-((6-(4-(2-fluoroethyl)piperazin-1-yl)-2-methylpyrimidin-4-yl)amino)thiazol-5-yl)phenyl)urea] | – | – | – | – | well tolerated | – | – | – | – | – | – | – | – | – | – | – | – | – | – | – | Day 18 TGI (Mia-paca2 tumor model): 68%; AUC(0-inf) (in vivo; iv, 2 mg/kg): 1840 ng·h/mL; AUC(0-inf) (in vivo; po, 10 mg/kg): 7580 ng·h/mL; bioavailability (in vivo; po, 10 mg/kg): 89%; Tolerability [6]: well tolerated; Mortality (nude mice n = 6) [6]: 0/6 (25 mg/kg); Mortality (nude mice n = 6) ([4]; PO 25 mg/kg once daily): 0/6 (25 mg/kg); Day 18 TGI (Colo205 xenografts; PO 25 mg/kg, 25 mg/kg): ~80% |
